Test results: patent US12371432B2, “Haloallylamine compounds and application thereof” (TransThera Sciences (Nanjing), Inc., priority 2019, dated 2025)
Structures can show the parent of a compound that is named as a salt.

How the values were obtained:
rhVAP-1 = biological target: T1, rhVAP-1 (Homo sapiens, UniProt Q16853); assay: Inhibitory activity against rhVAP-1 enzyme (Biological Example 2); type: biochemical; conditions: Table 2; benzylamine substrate, Amplex Red/HRP
T1 construct: purchased PeproTech
T1 sequence (Q16853 27-763 limits assumed): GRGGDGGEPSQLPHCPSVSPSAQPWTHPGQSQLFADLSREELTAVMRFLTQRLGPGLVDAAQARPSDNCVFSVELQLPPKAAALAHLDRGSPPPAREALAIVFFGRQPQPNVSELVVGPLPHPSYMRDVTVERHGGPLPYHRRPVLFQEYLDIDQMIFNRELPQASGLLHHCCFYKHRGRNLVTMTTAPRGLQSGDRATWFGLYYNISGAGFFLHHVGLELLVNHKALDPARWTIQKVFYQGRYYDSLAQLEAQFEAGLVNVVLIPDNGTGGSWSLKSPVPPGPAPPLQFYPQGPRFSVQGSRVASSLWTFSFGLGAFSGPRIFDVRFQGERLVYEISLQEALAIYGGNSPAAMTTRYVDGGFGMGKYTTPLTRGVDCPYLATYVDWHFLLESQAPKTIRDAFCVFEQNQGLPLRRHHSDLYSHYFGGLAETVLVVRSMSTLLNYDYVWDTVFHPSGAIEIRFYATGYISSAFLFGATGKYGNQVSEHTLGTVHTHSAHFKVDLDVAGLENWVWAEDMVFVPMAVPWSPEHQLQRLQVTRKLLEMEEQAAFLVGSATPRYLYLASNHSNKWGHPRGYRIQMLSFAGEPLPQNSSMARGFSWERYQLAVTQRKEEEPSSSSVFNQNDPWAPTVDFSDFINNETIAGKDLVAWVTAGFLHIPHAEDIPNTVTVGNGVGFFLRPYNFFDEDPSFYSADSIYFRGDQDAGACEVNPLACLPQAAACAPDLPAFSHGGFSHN
Description: 1. Inhibitory Activity of Compounds Against rhVAP-1 Enzyme
(§1) (1) Instrument, Consumable and Reagent
Microplate reader (Perkin Elmer, Nivo 5S), black unclear-bottom 96-well plate (Corning) and rhVAP-1 (PeproTech)
(§2) (2) Preparation of Concentration Gradient Compound Solutions
(§3) An appropriate amount of the compound to be tested was taken, dissolved in DMSO to 10 mM and then stored. Before the study, an appropriate amount of mother liquor of the 10 mM compound to be tested was taken and gradiently diluted 3-fold with DMSO, 10 concentration gradients in total. Each concentration gradient was then diluted 100-fold with 0.1 M of PBS.
(§4) (3) Preparation of Enzyme Solutions
An appropriate amount of protein diluent was added into rhVAP-1 powder, obtaining 1 mg/mL of mother liquor for storage. Before the study, PBS was used to carry out dilution to obtain enzyme solutions of 4× concentrations.
(§5) (4) Preparation of Substrate Mixtures of 2× Concentrations
(§6) An appropriate amount of benzylamine was weighed and dissolved with PBS to obtain 200 mM of benzylamine solution. The benzylamine solution was added with 2 mM of Amplex Red mother liquor and 500 U/mL of HRP mother liquor and diluted with PBS to obtain substrate mixtures of 2× concentrations.
(§7) 10 μL compound solutions of different concentrations, 25 μL rhVAP-1 enzyme solutions of 4× concentrations and 15 μL of PBS were first added into a 96-well plate, shaken to be mixed uniformly and then incubated at 37° C. for 30 min. 50 μL substrate mixtures of 2× concentrations were then added into each well, and the microplate reader was immediately used to perform detection with 580 nm (20 nm) exciting light and 620 nm (10 nm) emission light for 5 min each time, 30 min in total. The inhibition rate was calculated according to the following formula: V (RFU/min)=(Ft (RFU)−F0 (RFU))/(time(min)) Inhibition rate (%)=100%−Vcmpd (RFU/min)/Vmax (RFU/min)×100%
(§8) V: fluorescence change rate; Ft: fluorescence reading at time point t; F0: initial fluorescence reading; Time: duration t; Vcmpd: fluorescence change rate of tested compound; Vmax: Max hole fluorescence change rate.
(§9) (6) Fitting of Dose-Response Curve
(§10) With the log value of concentration as the X axis and the percent inhibition rate as the Y axis, the log (inhibitor) vs. response-variable slope of analysis software GraphPad Prism 5 was used to fit a dose-response curve, thus obtaining the IC50 value of activity of each compound against the enzyme.

rhAOC1 = biological target: T2, rhAOC1 (Homo sapiens, UniProt P19801); assay: Selectivity against rhAOC1 enzyme (Biological Example 2); type: biochemical; conditions: Table 2; histamine substrate, Amplex Red/HRP
T2 construct: purchased R&D
T2 sequence (P19801 20-751): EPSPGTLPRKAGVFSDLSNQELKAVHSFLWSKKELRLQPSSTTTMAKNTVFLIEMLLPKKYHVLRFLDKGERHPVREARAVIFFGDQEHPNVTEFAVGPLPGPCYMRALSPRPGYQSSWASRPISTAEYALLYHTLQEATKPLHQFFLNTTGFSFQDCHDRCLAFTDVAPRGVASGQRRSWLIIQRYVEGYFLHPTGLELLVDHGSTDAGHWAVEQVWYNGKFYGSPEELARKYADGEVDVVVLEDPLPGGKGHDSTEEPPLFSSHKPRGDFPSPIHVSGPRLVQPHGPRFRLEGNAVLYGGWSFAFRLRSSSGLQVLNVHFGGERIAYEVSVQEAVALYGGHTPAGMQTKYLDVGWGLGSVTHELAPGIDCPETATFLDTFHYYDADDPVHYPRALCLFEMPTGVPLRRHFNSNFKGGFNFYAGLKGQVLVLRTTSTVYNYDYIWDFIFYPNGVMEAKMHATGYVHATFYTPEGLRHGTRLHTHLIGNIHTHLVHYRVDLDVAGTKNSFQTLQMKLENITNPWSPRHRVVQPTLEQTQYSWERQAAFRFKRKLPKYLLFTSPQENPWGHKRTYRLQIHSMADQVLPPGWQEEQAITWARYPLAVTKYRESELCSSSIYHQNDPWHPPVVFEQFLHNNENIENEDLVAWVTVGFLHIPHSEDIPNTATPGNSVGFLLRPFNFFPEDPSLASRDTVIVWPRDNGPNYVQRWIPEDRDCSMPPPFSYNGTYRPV
Description: 2. Selectivity of Compounds Against rhAOC1 Enzyme
as §1
Microplate reader (Perkin Elmer, Nivo 5S), black unclear-bottom 96-well plate (Corning) and rhAOC1 (R&D)
as §2
as §3, with “10-fold” for “100-fold”
as §4
An appropriate amount of rhAOC1 mother liquor with a concentration of 0.441 mg/mL was taken and diluted with an appropriate amount of 50 mM HEPES buffer solution to obtain enzyme solutions of 4× concentrations.
as §5
as §6, with “histamine” for “benzylamine”, “50 mM of HEPES buffer solution” for “PBS”, “20” for “200”
as §7, with “rhAOC1” for “rhVAP-1”, “50 mM HEPES buffer solution” for “PBS”, “detect fluorescence intensity of each well” for “perform detection”
as §8, §9, §10

| Structure (SMILES) | IC50 (rhVAP-1) [nM] | IC50 (rhAOC1) [nM] |
| --- | --- | --- |
| NC/C(=C\F)Cn1cc2c(n1)CCN(C1CCC1)C2=O [Compound A9 hydrochloride, (E)-2-(2-(aminomethyl)-3-fluoroallyl)-5-cyclobutyl-2,5,6,7-tetrahydro-4H-pyrazolo[4,3-c]pyridin-4-one] | 37 | 911 |
| NC/C(=C\F)Cn1cc2c(n1)CCN(C1CCCC1)C2=O [Compound A10 hydrochloride, (E)-2-(2-(aminomethyl)-3-fluoroallyl)-5-cyclopentyl-2,5,6,7-tetrahydro-4H-pyrazolo[4,3-c]pyridin-4-one] | 40 | 1240 |
| CC(C)(C)N1Cc2nn(C/C(=C/F)CN)cc2C1=O [Compound A13, (E)-2-(2-(aminomethyl)-3-fluoroallyl)-5-(tert-butyl)-5,6-dihydropyrrolo[3,4-c]pyrazol-4(2H)-one] | 58 | 4180 |
| CC(C)(C)N1CCc2c(cnn2C/C(=C/F)CN)C1=O [Compound A21, (E)-1-(2-(aminomethyl)-3-fluoroallyl)-5-(tert-butyl)-1,5,6,7-tetrahydro-4H-pyrazolo[4,3-c]pyridin-4-one] | 96 | 4050 |
| NC/C(=C\F)Cn1cc2c(n1)CCNC2=O [Compound A23 hydrochloride, (E)-2-(2-(aminomethyl)-3-fluoroallyl)-2,5,6,7-tetrahydro-4H-pyrazolo[4,3-c]pyridin-4-one] | 39 |  |
| CN1CCc2nn(C/C(=C/F)CN)cc2C1=O [Compound A24 hydrochloride, (E)-2-(2-(aminomethyl)-3-fluoroallyl)-5-methyl-2,5,6,7-tetrahydro-4H-pyrazolo[4,3-c]pyridin-4-one] | 54 | 4720 |
| CC(C)N1CCc2nn(C/C(=C/F)CN)cc2C1=O [Compound A27 hydrochloride, (E)-2-(2-(aminomethyl)-3-fluoroallyl)-5-isopropyl-2,5,6,7-tetrahydro-4H-pyrazolo[4,3-c]pyridin-4-one] | 112 | 9650 |
| CCN1Cc2cnn(C/C(=C/F)CN)c2C1=O [Compound A31 hydrochloride, (E)-1-(2-(aminomethyl)-3-fluoroallyl)-5-ethyl-4,5-dihydropyrrolo[3,4-c]pyrazol-6(1H)-one] | 53 | 8280 |
| COCCN1CCc2nn(C/C(=C/F)CN)cc2C1=O [Compound A47 hydrochloride, (E)-2-(2-(aminomethyl)-3-fluoroallyl)-5-(2-methoxyethyl)-2,5,6,7-tetrahydro-4H-pyrazolo[4,3-c]pyridin-4-one] | 20 |  |
| NC/C(=C\F)Cn1cc2c(n1)CCN(CC1CC1)C2=O [Compound A48 hydrochloride, (E)-2-(2-(aminomethyl)-3-fluoroallyl)-5-(cyclopropylmethyl)-2,5,6,7-tetrahydro-4H-pyrazolo[4,3-c]pyridin-4-one] | 12 |  |
| CCC(C)(C)N1CCc2nn(C/C(=C/F)CN)cc2C1=O [Compound A49 hydrochloride, (E)-2-(2-(aminomethyl)-3-fluoroallyl)-5-(tert-pentyl)-2,5,6,7-tetrahydro-4H-pyrazolo[4,3-c]pyridin-4-one] | 17 |  |
| NC/C(=C\F)Cn1cc(C(=O)NC2CC2)cn1 [Compound B4 hydrochloride, (E)-1-(2-(aminomethyl)-3-fluoroallyl)-N-cyclopropyl-1H-pyrazole-4-carboxamide] | 51 | 5930 |
| NC/C(=C\F)Cn1ccc2cc(C(=O)N3CCCC3)ccc21 [Compound C7 hydrochloride, (E)-(1-(2-(aminomethyl)-3-fluoroallyl)-1H-indole-5-yl)(pyrrolidin-1-yl)methanone] | 96 | 13400 |
| NC/C(=C\F)Cn1ccc2cc(C(=O)N3CCC3)ccc21 [Compound C13 hydrochloride, (E)-(1-(2-(aminomethyl)-3-fluoroallyl)-1H-indol-5-yl)(azetidin-1-yl)methanone] | 67 | 1080 |

Further lines, results first:

| IC50 (rhVAP-1) [nM] | IC50 (rhAOC1) [nM] | Structure (SMILES) |
| --- | --- | --- |
| 55 | 5380 | CCNC(=O)c1cnn(C/C(=C/F)CN)c1 [Compound B2, (E)-1-(2-(aminomethyl)-3-fluoroallyl)-N-ethyl-1H-pyrazole-4-carboxamide] |
| 89 | 12500 | CC(C)(C)NC(=O)c1cnn(C/C(=C/F)CN)c1 [Compound B3, (E)-1-(2-(aminomethyl)-3-fluoroallyl)-N-(tert-butyl)-1H-pyrazole-4-carboxamide] |
| 83 | 8580 | CC(C)(C)NC(=O)c1ccn(C/C(=C/F)CN)c1 [Compound B12, (E)-1-(2-aminomethyl-3-fluoroallyl)-N-tert-butyl-1H-pyrrole-3-carboxamide] |
| 14 |  | NC/C(=C\F)Cn1cc(C(=O)Nc2ccc(Cl)cc2)cn1 [Compound B28, (E)-1-(2-aminomethyl-3-fluoroallyl)-N-4-chlorophenyl-1H-pyrazole-4-carboxamide] |
| 70 | 10800 | CN(C)C(=O)c1cnn(C/C(=C/F)CN)c1 [Compound B29, (E)-1-(2-(aminomethyl)-3-fluoroallyl)-N,N-dimethyl-1H-pyrazole-4-carboxamide] |
